Experiments:
Experiment in all cases: relative viability (nuclei count vs DMSO), 5 days (fraction); higher = more cells survive
Gemcitabine + Crizotinib = compound: Nc1ccn([C@@H]2O[C@H](CO)[C@@H](O)C2(F)F)c(=O)n1 [Gemcitabine] + C[C@@H](Oc1cc(-c2cnn(C3CCNCC3)c2)cnc1N)c1c(Cl)ccc(F)c1Cl [Crizotinib] (partner 1 µM)
Outline: (§1)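 After 5 days of treatment, lung cancer cells in 1536-well plates were fixed and stained in a single step (final 0.05% Triton X-100, 1% formaldehyde, 1 ug/ml Hoechst) and their nuclei counted on 4× images. Treatment had been applied by pin tool the day after seeding as one drug alone or as a fixed anchor-drug dose with five library-drug doses (not always all listed) in √10 steps. Relative viability is the nuclei count of treated wells divided by that of vehicle wells, and values are medians of duplicate plates.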

Gemcitabine + Tozasertib = compound: Nc1ccn([C@@H]2O[C@H](CO)[C@@H](O)C2(F)F)c(=O)n1 [Gemcitabine] + Cc1cc(Nc2cc(N3CCN(C)CC3)nc(Sc3ccc(NC(=O)C4CC4)cc3)n2)n[nH]1 [Tozasertib] (partner 0.1 µM)
Outline: as §1

Gemcitabine + Lapatinib = compound: Nc1ccn([C@@H]2O[C@H](CO)[C@@H](O)C2(F)F)c(=O)n1 [Gemcitabine] + CS(=O)(=O)CCNCc1ccc(-c2ccc3ncnc(Nc4ccc(OCc5cccc(F)c5)c(Cl)c4)c3c2)o1 [Lapatinib] (partner 2 µM)
Outline: as §1

Gemcitabine + Decitabine = compound: Nc1ccn([C@@H]2O[C@H](CO)[C@@H](O)C2(F)F)c(=O)n1 [Gemcitabine] + Nc1ncn([C@H]2C[C@H](O)[C@@H](CO)O2)c(=O)n1 [Decitabine] (partner 2 µM)
Outline: as §1

Cell Line	relative viability (Gemcitabine + Crizotinib; first compound 0.001 µM)	relative viability (Gemcitabine + Crizotinib; first compound 0.003162 µM)	relative viability (Gemcitabine + Crizotinib; first compound 0.01 µM)	relative viability (Gemcitabine + Crizotinib; first compound 0.03162 µM)	relative viability (Gemcitabine + Crizotinib; first compound 0.1 µM)	relative viability (Gemcitabine + Tozasertib; first compound 0.001 µM)	relative viability (Gemcitabine + Tozasertib; first compound 0.003162 µM)	relative viability (Gemcitabine + Tozasertib; first compound 0.01 µM)	relative viability (Gemcitabine + Tozasertib; first compound 0.03162 µM)	relative viability (Gemcitabine + Tozasertib; first compound 0.1 µM)	relative viability (Gemcitabine + Lapatinib; first compound 0.001 µM)	relative viability (Gemcitabine + Lapatinib; first compound 0.003162 µM)	relative viability (Gemcitabine + Lapatinib; first compound 0.01 µM)	relative viability (Gemcitabine + Lapatinib; first compound 0.03162 µM)	relative viability (Gemcitabine + Lapatinib; first compound 0.1 µM)	relative viability (Gemcitabine + Decitabine; first compound 0.001 µM)	relative viability (Gemcitabine + Decitabine; first compound 0.003162 µM)	relative viability (Gemcitabine + Decitabine; first compound 0.01 µM)	relative viability (Gemcitabine + Decitabine; first compound 0.03162 µM)	relative viability (Gemcitabine + Decitabine; first compound 0.1 µM)
201T	1.04	1.01	0.975	0.464	0.329	0.981	0.98	0.896	0.425	0.298	0.981	1.04	1.03	0.942	0.537	0.83	0.87	0.906	0.776	0.446
A-427	0.984	0.764	0.503	0.124	0.106	0.189	0.19	0.135	0.13	0.121	1.09	0.686	0.808	0.199	0.13	0.629	0.546	0.463	0.342	0.273
ABC-1	1.2	1.4	0.829	0.342	0.114	0.185	–	0.159	0.188	0.187	1.14	1.2	0.95	0.88	0.664	–	0.798	1.07	0.497	0.436
BEN	0.874	0.563	0.139	0.113	0.09	0.56	0.559	0.419	0.24	0.175	0.625	0.529	0.197	0.112	0.108	0.698	0.456	0.413	0.249	0.257
CAL-12T	0.684	0.745	0.662	0.227	0.104	0.292	0.35	0.29	0.22	0.129	0.786	0.65	0.396	0.264	0.181	–	–	–	–	–
COR-L23	0.72	0.565	0.211	0.0732	0.0754	0.223	0.19	0.111	0.0883	0.0724	1.02	0.896	0.72	0.105	0.105	0.423	0.463	0.443	0.217	0.146
COR-L 105	1.09	0.825	0.577	0.286	0.197	0.38	0.31	0.349	0.263	0.191	0.362	0.355	0.314	0.302	0.269	0.68	0.596	0.46	0.37	0.3
Calu-6	0.784	0.585	0.279	0.145	0.123	–	–	–	–	–	1.03	0.799	0.348	0.167	0.126	–	–	–	–	–
ChaGo-K-1	1.12	0.961	0.578	0.36	0.314	0.217	0.216	0.184	0.181	0.155	–	–	–	–	–	0.517	0.467	0.337	0.205	0.187
EBC-1	0.192	0.166	0.161	0.134	0.159	–	–	–	–	–	0.15	0.187	0.176	0.181	0.167	–	–	–	–	–
EKVX	1	0.872	0.387	0.169	0.159	0.456	0.376	0.257	0.12	0.106	0.238	0.354	0.111	0.116	0.12	0.3	0.256	0.18	0.193	0.14
EMC-BAC-2	0.778	0.768	0.594	0.14	0.149	0.269	0.32	0.26	0.176	0.155	0.923	0.979	0.86	0.198	0.159	0.965	0.936	0.726	0.356	0.262
EPLC-272H	0.766	0.847	0.196	0.175	0.0681	0.291	0.295	0.249	0.0772	0.0692	1.08	0.257	0.664	0.19	0.0848	0.389	0.353	0.305	0.224	0.0962
H3255	0.97	0.439	0.63	0.167	0.176	0.604	0.497	0.407	0.258	0.209	0.223	0.235	0.221	0.138	0.159	0.884	0.374	0.42	0.238	0.15
HARA	0.975	1.02	1.02	0.3	0.124	0.12	0.103	0.095	0.0811	0.042	0.77	0.836	0.794	0.604	0.137	0.593	0.702	0.373	0.279	0.131
HCC-15	0.929	0.819	0.79	0.192	0.0758	0.51	0.436	0.39	0.247	0.0632	0.918	0.88	0.829	0.55	0.121	0.622	0.67	0.612	0.226	0.107
HCC-44	0.825	0.756	0.614	0.201	0.154	1.05	0.918	0.774	0.194	0.162	1.01	0.98	0.897	0.477	0.17	0.936	0.918	0.901	0.845	0.738

Cell Line	relative viability (Gemcitabine + Crizotinib; first compound 0.001 µM)	relative viability (Gemcitabine + Crizotinib; first compound 0.003162 µM)	relative viability (Gemcitabine + Crizotinib; first compound 0.01 µM)	relative viability (Gemcitabine + Crizotinib; first compound 0.03162 µM)	relative viability (Gemcitabine + Crizotinib; first compound 0.1 µM)	relative viability (Gemcitabine + Tozasertib; first compound 0.001 µM)	relative viability (Gemcitabine + Tozasertib; first compound 0.003162 µM)	relative viability (Gemcitabine + Tozasertib; first compound 0.01 µM)	relative viability (Gemcitabine + Tozasertib; first compound 0.03162 µM)	relative viability (Gemcitabine + Tozasertib; first compound 0.1 µM)	relative viability (Gemcitabine + Lapatinib; first compound 0.001 µM)	relative viability (Gemcitabine + Lapatinib; first compound 0.003162 µM)	relative viability (Gemcitabine + Lapatinib; first compound 0.01 µM)	relative viability (Gemcitabine + Lapatinib; first compound 0.03162 µM)	relative viability (Gemcitabine + Lapatinib; first compound 0.1 µM)	relative viability (Gemcitabine + Decitabine; first compound 0.001 µM)	relative viability (Gemcitabine + Decitabine; first compound 0.003162 µM)	relative viability (Gemcitabine + Decitabine; first compound 0.01 µM)	relative viability (Gemcitabine + Decitabine; first compound 0.03162 µM)	relative viability (Gemcitabine + Decitabine; first compound 0.1 µM)
HCC-78	0.271	0.26	0.167	0.146	0.15	0.448	0.37	0.147	0.198	0.164	0.695	0.485	0.146	0.272	0.168	0.622	0.651	0.367	0.343	0.268
HCC-366	0.629	0.588	0.0778	0.0184	0.0078	0.14	0.105	0.0801	0.0228	0.0235	0.954	1.19	0.546	0.0287	0.0142	0.329	0.331	0.0609	0.0417	0.0234
HCC-827	0.886	0.674	0.572	0.387	0.214	0.402	0.392	0.303	0.191	0.169	0.181	0.177	0.18	0.138	0.126	0.333	0.226	0.274	0.166	0.186
HOP-62	0.906	0.677	0.0595	0.051	0.0502	0.392	0.285	0.0943	0.0841	0.0623	0.961	0.863	0.301	0.0724	0.0756	0.253	0.172	0.16	0.0888	0.121
IA-LM	–	0.615	0.254	0.0992	0.0456	–	–	–	–	–	–	0.853	0.353	0.124	0.0354	–	–	–	–	–
LCLC-103H	1.12	1.07	0.934	0.997	0.272	0.491	0.399	0.395	0.176	0.139	–	–	–	–	–	0.694	0.738	0.715	0.674	0.57
NCI-H441	0.82	0.286	0.167	0.121	0.129	0.569	0.394	0.25	0.196	0.197	–	–	–	–	–	0.208	0.212	0.17	0.167	0.127
NCI-H1299	1.03	0.977	0.973	0.995	0.983	–	–	–	–	–	0.941	1.01	0.962	0.938	0.921	–	–	–	–	–
NCI-H1395	–	–	–	–	–	0.676	0.674	0.429	0.367	0.334	1.02	0.725	0.448	0.32	0.33	0.736	0.592	0.47	0.422	0.365
NCI-H1563	0.861	0.993	0.917	0.635	0.411	–	–	–	–	–	1.01	1.19	0.901	0.704	0.612	–	–	–	–	–
NCI-H1648	–	–	–	–	–	0.593	–	0.407	0.251	0.198	–	–	–	–	–	0.515	0.443	0.442	0.315	0.293
NCI-H1703	0.588	0.208	0.11	0.125	0.0932	–	–	–	–	–	0.898	0.262	0.156	0.164	0.114	–	–	–	–	–
NCI-H1792	1.05	0.897	0.222	0.0949	0.0981	–	–	–	–	–	0.948	0.806	0.239	0.107	0.0773	0.406	0.291	0.0943	0.0857	0.0713
NCI-H1793	–	–	–	–	–	0.421	0.507	0.202	0.133	0.12	1.07	0.734	0.489	0.244	0.166	0.512	0.433	0.271	0.156	0.162
NCI-H2228	0.615	0.326	0.233	0.141	0.166	0.278	0.209	0.154	0.108	0.115	1.06	0.827	0.207	0.109	0.148	–	–	–	–	–
SW 900	–	–	–	–	–	0.462	0.241	0.127	0.0969	0.109	–	–	–	–	–	0.325	0.372	0.267	0.148	0.169
